Results: US20230365559A1, “NOVEL AMINOPYRIDINES AND THEIR USE IN TREATING CANCER” (priority 2020, published 2023)
pIC50: −log10 of the molar value. Where “and” joins values, the source holds several entries; their conditions need not be identical. Equal values may be shown once. Entries after “also recorded” stand apart in the source; their conditions may differ. Read-outs that look alike come from different tables or passages of the source.

How the values were obtained:
HAP1/PRKDC−/− cells = experiment: Radiosensitisation of DNA-PK null HAP1/PRKDC−/− cells, regrowth assay; assay type: cell-based, human; conditions: for pIC50: Homo sapiens, HAP1; for radiosensitisation / differential growth inhibition of DNA-PK null HAP1 line: 3 Gy, HAP1/PRKDC−/−
UT-SCC-54C cells [1] = experiment: Radiosensitisation of UT-SCC-54C HNSCC cells, regrowth (sulforhodamine B) assay, oxic (Table 16); assay type: cell-based, human; conditions: for pIC50: Homo sapiens, read-out: IC50; for S50: compound in combination with 3 Gy of radiation, 50% inhibition of regrowth fraction, UT-SCC-54C; for S50 / radiosensitisation / differential growth inhibition of UT-SCC-54C cells: oxic; for radiosensitisation / differential growth inhibition of UT-SCC-54C cells: 0 or 3 Gy, regrowth assay
human PI3Kα (p110α/p85α) = human PI3Kα (p110α/p85α) (Homo sapiens, UniProt P42336); experiment: Inhibition of PI3Kα kinase activity, ADP-Glo Assay (Reaction Biology); assay type: biochemical; conditions: 10 μM ATP; mean of two replicates; Table 12; read-out: Inhibition of kinase activity (as IC50) PICK
Sequence of human PI3Kα (p110α/p85α) (P42336 whole entry): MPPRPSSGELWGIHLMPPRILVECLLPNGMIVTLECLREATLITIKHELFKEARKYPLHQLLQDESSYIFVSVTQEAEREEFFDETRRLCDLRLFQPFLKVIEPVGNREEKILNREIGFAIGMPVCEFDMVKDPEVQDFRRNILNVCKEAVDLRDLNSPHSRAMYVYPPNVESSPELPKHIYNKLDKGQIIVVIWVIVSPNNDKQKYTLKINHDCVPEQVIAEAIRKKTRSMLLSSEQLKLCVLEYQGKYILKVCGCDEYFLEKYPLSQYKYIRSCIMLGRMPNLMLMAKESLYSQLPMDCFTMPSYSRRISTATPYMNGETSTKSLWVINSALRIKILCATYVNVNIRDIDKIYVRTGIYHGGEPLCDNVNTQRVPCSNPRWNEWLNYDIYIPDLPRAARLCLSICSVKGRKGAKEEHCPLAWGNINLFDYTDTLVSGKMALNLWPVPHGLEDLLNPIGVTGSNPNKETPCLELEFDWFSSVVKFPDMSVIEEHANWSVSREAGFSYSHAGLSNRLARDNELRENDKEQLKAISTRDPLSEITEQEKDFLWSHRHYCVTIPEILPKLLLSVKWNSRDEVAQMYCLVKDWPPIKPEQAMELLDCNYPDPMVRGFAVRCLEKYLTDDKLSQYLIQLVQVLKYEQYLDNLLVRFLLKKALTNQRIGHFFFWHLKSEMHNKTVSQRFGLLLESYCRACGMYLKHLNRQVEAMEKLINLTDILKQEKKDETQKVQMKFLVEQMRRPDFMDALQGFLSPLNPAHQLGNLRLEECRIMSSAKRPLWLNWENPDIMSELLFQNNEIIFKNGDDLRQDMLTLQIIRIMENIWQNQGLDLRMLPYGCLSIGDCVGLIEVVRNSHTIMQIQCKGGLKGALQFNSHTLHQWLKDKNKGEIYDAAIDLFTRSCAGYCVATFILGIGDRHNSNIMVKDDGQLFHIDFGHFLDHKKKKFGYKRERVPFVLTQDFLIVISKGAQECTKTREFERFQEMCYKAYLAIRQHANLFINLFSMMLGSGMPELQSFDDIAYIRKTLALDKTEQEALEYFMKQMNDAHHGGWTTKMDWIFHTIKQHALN
Sequence of human PI3Kα (p110α/p85α) (P27986 whole entry partner): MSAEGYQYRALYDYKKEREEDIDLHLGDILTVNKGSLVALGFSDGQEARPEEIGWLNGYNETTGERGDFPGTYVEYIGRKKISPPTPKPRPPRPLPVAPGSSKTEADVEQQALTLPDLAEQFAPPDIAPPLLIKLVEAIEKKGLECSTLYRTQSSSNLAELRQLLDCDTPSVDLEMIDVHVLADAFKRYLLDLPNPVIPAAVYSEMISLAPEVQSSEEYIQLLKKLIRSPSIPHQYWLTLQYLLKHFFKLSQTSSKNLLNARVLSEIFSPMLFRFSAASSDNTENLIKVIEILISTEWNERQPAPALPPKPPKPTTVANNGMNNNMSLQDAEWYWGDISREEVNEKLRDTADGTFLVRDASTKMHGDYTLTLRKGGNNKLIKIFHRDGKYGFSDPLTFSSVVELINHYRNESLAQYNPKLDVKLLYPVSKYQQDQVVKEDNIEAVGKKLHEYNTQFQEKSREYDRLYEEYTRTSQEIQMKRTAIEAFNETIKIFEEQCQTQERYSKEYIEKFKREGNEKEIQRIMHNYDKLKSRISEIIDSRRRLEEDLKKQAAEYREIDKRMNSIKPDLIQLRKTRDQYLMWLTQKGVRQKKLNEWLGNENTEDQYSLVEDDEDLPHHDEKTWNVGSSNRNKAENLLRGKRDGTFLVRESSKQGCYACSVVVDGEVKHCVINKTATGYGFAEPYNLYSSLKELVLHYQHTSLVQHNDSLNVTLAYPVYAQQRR

human DNA-PK = human DNA-PK (Homo sapiens, UniProt P78527); experiment: Inhibition of DNA-PKcs kinase activity, HotSpot assay (Reaction Biology), [γ-33P]-ATP phosphorylation of peptide substrate; assay type: biochemical; conditions: for IC50: 10 μM ATP, 10 μg/ml DNA, mean of two replicates, Table 12, read-out: Inhibition of kinase activity (as IC50) DNA-PK (converted); for pIC50: HotSpot assay Reaction Biology Corp., Table 15, read-out: Inhibition of PIKK kinase activity DNA-PK
HAP1 cells = experiment: Radiosensitisation of HAP1 wild type cells, regrowth assay; assay type: cell-based, human; conditions: for pIC50: Homo sapiens, HAP1, read-out: HAP1 wt IC50; for effect in unirradiated HAP1 cells: 0 Gy; for radiosensitisation / differential growth inhibition of HAP1 cells: 3 Gy cobalt-60 gamma irradiation relative to radiation-only
human mTOR = human mTOR (Homo sapiens, UniProt P42345); experiment: Inhibition of mTOR kinase activity, HotSpot assay, phosphorylation of 4EPB1
UT-SCC-54C cells [2] = experiment: Radiosensitisation of UT-SCC-54C HNSCC cells, clonogenic survival, oxic and anoxic (Table 18); assay type: cell-based, human; conditions: for Plating efficiency drug/no drug: no radiation
ATM = ATM (Homo sapiens, UniProt Q13315); experiment: ATM Human PIKK Kinase Enzymatic ELISA/EIA Assay, KinaseProfiler (Eurofins Discovery); assay type: biochemical; conditions: read-out: ATM, Percent of control at 1 μM
Sequence of ATM (Q13315 whole entry): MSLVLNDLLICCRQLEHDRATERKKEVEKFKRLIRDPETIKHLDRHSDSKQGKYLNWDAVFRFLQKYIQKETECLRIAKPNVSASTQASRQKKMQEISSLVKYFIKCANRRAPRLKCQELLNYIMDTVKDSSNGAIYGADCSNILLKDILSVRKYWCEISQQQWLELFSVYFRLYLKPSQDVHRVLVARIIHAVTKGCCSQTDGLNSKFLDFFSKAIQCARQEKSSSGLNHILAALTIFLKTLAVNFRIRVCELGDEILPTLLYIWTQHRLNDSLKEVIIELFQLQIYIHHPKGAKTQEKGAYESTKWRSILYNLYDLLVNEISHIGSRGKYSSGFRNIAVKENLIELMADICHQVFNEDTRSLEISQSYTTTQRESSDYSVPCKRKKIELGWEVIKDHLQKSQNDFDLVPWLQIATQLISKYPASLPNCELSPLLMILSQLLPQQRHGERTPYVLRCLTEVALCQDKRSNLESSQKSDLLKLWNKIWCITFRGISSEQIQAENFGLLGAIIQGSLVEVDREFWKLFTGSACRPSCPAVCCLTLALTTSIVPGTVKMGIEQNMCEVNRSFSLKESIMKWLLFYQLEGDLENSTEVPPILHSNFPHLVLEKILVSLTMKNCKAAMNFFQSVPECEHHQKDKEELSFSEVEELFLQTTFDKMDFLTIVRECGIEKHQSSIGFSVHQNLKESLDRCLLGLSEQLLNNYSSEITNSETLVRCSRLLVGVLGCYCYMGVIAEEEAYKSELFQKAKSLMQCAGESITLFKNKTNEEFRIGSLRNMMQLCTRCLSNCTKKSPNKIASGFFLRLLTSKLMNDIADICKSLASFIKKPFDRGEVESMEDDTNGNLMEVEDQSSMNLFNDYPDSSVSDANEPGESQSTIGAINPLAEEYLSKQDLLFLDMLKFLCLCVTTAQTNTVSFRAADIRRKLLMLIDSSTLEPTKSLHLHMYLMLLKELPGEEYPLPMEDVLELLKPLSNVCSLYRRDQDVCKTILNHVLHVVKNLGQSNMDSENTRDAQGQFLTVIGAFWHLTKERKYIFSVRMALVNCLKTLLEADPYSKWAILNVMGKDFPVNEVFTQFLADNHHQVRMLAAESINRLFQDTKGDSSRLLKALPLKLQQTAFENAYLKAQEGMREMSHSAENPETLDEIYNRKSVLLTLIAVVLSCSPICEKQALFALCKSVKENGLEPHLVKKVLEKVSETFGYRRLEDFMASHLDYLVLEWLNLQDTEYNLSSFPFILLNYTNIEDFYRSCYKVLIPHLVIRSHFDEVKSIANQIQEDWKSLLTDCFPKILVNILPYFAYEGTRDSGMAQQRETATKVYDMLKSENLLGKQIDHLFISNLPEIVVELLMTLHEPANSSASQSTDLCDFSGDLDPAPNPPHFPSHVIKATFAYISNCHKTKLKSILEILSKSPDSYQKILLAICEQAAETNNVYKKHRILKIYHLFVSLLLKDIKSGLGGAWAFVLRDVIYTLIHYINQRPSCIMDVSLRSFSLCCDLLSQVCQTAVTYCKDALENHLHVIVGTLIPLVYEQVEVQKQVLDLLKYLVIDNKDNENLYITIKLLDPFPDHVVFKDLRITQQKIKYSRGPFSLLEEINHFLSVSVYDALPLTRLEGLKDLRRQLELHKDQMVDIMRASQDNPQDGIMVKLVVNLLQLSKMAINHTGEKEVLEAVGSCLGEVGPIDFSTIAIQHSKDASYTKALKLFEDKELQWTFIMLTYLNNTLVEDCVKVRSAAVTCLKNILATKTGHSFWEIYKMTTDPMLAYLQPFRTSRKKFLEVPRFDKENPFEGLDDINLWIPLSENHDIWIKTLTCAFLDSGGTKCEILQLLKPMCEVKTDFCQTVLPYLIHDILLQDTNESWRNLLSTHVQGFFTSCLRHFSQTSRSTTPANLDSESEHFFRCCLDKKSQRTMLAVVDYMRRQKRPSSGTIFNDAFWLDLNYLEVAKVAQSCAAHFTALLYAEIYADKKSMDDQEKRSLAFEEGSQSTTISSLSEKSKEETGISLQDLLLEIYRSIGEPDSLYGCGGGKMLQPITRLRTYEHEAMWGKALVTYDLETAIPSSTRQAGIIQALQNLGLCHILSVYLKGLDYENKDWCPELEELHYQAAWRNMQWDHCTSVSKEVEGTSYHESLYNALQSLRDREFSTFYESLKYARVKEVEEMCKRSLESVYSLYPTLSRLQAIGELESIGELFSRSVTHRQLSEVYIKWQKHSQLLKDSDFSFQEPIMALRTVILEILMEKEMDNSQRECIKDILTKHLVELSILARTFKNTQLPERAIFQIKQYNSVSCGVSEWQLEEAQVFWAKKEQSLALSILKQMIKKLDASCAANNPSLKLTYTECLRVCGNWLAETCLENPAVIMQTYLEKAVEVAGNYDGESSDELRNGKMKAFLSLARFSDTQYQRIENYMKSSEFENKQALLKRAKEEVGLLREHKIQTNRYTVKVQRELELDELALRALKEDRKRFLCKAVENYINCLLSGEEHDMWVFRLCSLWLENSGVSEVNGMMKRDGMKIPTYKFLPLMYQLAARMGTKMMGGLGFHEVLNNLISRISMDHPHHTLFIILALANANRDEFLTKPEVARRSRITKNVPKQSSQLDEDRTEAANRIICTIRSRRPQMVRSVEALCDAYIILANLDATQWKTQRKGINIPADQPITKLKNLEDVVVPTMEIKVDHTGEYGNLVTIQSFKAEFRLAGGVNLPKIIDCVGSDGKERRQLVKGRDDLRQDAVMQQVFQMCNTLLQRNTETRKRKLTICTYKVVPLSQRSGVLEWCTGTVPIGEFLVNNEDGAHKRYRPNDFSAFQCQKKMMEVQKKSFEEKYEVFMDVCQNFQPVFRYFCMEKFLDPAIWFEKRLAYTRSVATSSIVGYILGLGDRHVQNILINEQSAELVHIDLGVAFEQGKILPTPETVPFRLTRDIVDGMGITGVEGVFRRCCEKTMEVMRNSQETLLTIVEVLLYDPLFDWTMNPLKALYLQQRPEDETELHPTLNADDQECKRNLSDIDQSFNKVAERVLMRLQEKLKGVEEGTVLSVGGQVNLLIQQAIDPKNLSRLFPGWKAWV

[3] = Inhibition of kinase activity (as IC50) mTOR (nM), 10 μM ATP, mean of two replicates, Table 12

IC50 (human mTOR; [3]) [nM]	SMILES	pIC50 (HAP1/PRKDC−/− cells)	pIC50 (UT-SCC-54C cells [1])	S50 (UT-SCC-54C cells [1]) [µM]	pIC50 (human PI3Kα (p110α/p85α))	IC50 (human DNA-PK)	pIC50 (HAP1 cells)	radiosensitisation / differential growth inhibition of DNA-PK null HAP1 line (HAP1/PRKDC−/− cells)	effect in unirradiated HAP1 cells (HAP1 cells)	also measured
	Cc1cc(Cl)ccc1Nc1cc2c(cn1)n(C)c(=O)n2C1CCOC1 (centres unmarked) [Compound 116, 6-((4-Chloro-2-methylphenyl)amino)-3-methyl-1-(tetrahydrofuran-3-yl)-1,3-dihydro-2H-imidazo[4,5-c]pyridin-2-one]	< 5.00	< 5.00	0.06	5.26	0.0049 µM	< 5.00			
12600	COc1cc(C)c(Nc2cc3c(cn2)n(C)c(=O)n3C2CCOCC2)cn1 [Compound 126, 6-((6-Methoxy-4-methylpyridin-3-yl)amino)-3-methyl-1-(tetrahydro-2H-pyran-4-yl)-1,3-dihydro-2H-imidazo[4,5-c]pyridin-2-one]	< 5.00	< 5.00	0.32	5.37	0.00906 µM	< 5.00	did not radiosensitise	little effect	radiosensitisation / differential growth inhibition of HAP1 cells (HAP1 cells): concentration-dependent radiosensitisation
60200	Cc1nc2cc(C)c(Nc3cc4c(cn3)n(C)c(=O)n4C3CCOCC3)cc2o1 [Compound 132, 6-((2,5-Dimethylbenzo[d]oxazol-6-yl)amino)-3-methyl-1-(tetrahydro-2H-pyran-4-yl)-1,3-dihydro-2H-imidazo[4,5-c]pyridin-2-one]		< 5.00	0.49	5.25	0.0126 µM		did not radiosensitise	little effect	radiosensitisation / differential growth inhibition of HAP1 cells (HAP1 cells): concentration-dependent radiosensitisation
	Cc1cc(O)ccc1Nc1cc2c(cn1)n(C)c(=O)n2C1CCOCC1 [Compound 135, 6-((4-Hydroxy-2-methylphenyl)amino)-3-methyl-1-(tetrahydro-2H-pyran-4-yl)-1,3-dihydro-2H-imidazo[4,5-c]pyridin-2-one]	< 5.00	< 5.00	0.93	5.49 and 5.28	0.0057 µM and 0.0171 µM	< 5.00	did not radiosensitise; also recorded: did not demonstrate any differential growth inhibition	little effect	D1 (radiation dose for 1% surviving fraction) (UT-SCC-54C cells [2]; 0% O2, compound conc 1 μM): 11.5 Gy; D10 (radiation dose for 10% surviving fraction) (UT-SCC-54C cells [2]; 0% O2, compound conc 1 μM): 6.37 Gy; SER1 (sensitiser enhancement ratio at 1% surviving fraction) (UT-SCC-54C cells [2]; 0% O2, compound conc 1 μM): 2.07; SER10 (sensitiser enhancement ratio at 10% surviving fraction) (UT-SCC-54C cells [2]; 0% O2, compound conc 1 μM): 2.47; Plating efficiency drug/no drug (UT-SCC-54C cells [2]; 0% O2, compound conc 1 μM): 1.12; D1 (radiation dose for 1% surviving fraction) (UT-SCC-54C cells [2]; 20% O2, compound conc 0.33 μM): 1.37 Gy; D10 (radiation dose for 10% surviving fraction) (UT-SCC-54C cells [2]; 20% O2, compound conc 0.33 μM): 4.85 Gy; SER1 (sensitiser enhancement ratio at 1% surviving fraction) (UT-SCC-54C cells [2]; 20% O2, compound conc 0.33 μM): 1.20; SER10 (sensitiser enhancement ratio at 10% surviving fraction) (UT-SCC-54C cells [2]; 20% O2, compound conc 0.33 μM): 8.09; Plating efficiency drug/no drug (UT-SCC-54C cells [2]; 20% O2, compound conc 0.33 μM): 0.77; D10 (radiation dose for 10% surviving fraction) (UT-SCC-54C cells [2]; 20% O2, compound conc 1 μM): 3.15 Gy and 2.88 Gy; SER1 (sensitiser enhancement ratio at 1% surviving fraction) (UT-SCC-54C cells [2]; 20% O2, compound conc 1 μM): 1.5 and 1.59; Plating efficiency drug/no drug (UT-SCC-54C cells [2]; 20% O2, compound conc 1 μM): 0.59 and 0.89; D1 (radiation dose for 1% surviving fraction) (UT-SCC-54C cells [2]; 20% O2, compound conc 3 μM): 2.91 Gy; D10 (radiation dose for 10% surviving fraction) (UT-SCC-54C cells [2]; 20% O2, compound conc 3 μM): 2.28 Gy; SER1 (sensitiser enhancement ratio at 1% surviving fraction) (UT-SCC-54C cells [2]; 20% O2, compound conc 3 μM): 1.92; SER10 (sensitiser enhancement ratio at 10% surviving fraction) (UT-SCC-54C cells [2]; 20% O2, compound conc 3 μM): 5.06; Plating efficiency drug/no drug (UT-SCC-54C cells [2]; 20% O2, compound conc 3 μM): 0.63; radiosensitisation, clonogenic survival endpoint (UT-SCC-54C cells [2]; UT-SCC-54C, FIG. 8 and Table 18): concentration-dependent increases in radiosensitisation
	Cn1c(=O)n(-c2ccc(C(C)(C)C#N)cc2)c2cc(Nc3ccc4ncccc4c3)ncc21 [Compound 213, 2-Methyl-2-(4-(3-methyl-2-oxo-6-(quinolin-6-ylamino)-2,3-dihydro-1H-imidazo[4,5-c]pyridin-1-yl)phenyl)propanenitrile]		< 5.00	2.22	5.76	0.00123 µM				remaining activity at 1 µM (ATM): 68%; pIC50 (human DNA-PK): 8.91
> 100000	COc1ccc(N(C(=O)OCc2cnc([N+](=O)[O-])n2C)c2cc3c(cn2)n(C)c(=O)n3C2CCC(OC)CC2)c(C)c1 (centres unmarked) [Compound 258, (1-Methyl-2-nitro-1H-imidazol-5-yl)methyl (4-methoxy-2-methylphenyl)(1-(4-methoxycyclohexyl)-3-methyl-2-oxo-2,3-dihydro-1H-imidazo[4,5-c]pyridin-6-yl)carbamate]		< 5.00	>10	4.41	0.754 µM				radiosensitisation / differential growth inhibition of UT-SCC-54C cells (UT-SCC-54C cells [1]): did not display any differential growth inhibition

SMILES	IC50 (human mTOR; [3]) [nM]	pIC50 (HAP1/PRKDC−/− cells)	pIC50 (UT-SCC-54C cells [1])	S50 (UT-SCC-54C cells [1]) [µM]	pIC50 (human PI3Kα (p110α/p85α))	IC50 (human DNA-PK)	pIC50 (HAP1 cells)	radiosensitisation / differential growth inhibition of DNA-PK null HAP1 line (HAP1/PRKDC−/− cells)	effect in unirradiated HAP1 cells (HAP1 cells)	also measured
COc1ccc(Nc2cc3c(cn2)n(C)c(=O)n3C2CCOCC2)cc1 [Compound 215, 6-((4-Methoxyphenyl)amino)-3-methyl-1-(tetrahydro-2H-pyran-4-yl)-1,3-dihydro-2H-imidazo[4,5-c]pyridin-2-one]	12300		< 5.00	7.5	4.90	0.051 µM				remaining activity at 1 µM (ATM): 90%; pIC50 (human DNA-PK): 7.29; IC50 (human mTOR; Inhibition of PIKK kinase activity mTOR/FRAP (nM), HotSpot assay Reaction Biology Corp., Table 15): 12300 nM
COc1ccc(N(C(=O)OCc2ncc([N+](=O)[O-])n2C)c2cc3c(cn2)n(C)c(=O)n3C2CCOCC2)c(C)c1 [Compound 251, (1-Methyl-5-nitro-1H-imidazol-2-yl)methyl (4-methoxy-2-methylphenyl)(3-methyl-2-oxo-1-(tetrahydro-2H-pyran-4-yl)-2,3-dihydro-1H-imidazo[4,5-c]pyridin-6-yl)carbamate]	> 100000		< 5.00	>10	< 4.00	1.26 µM				D1 (radiation dose for 1% surviving fraction) (UT-SCC-54C cells [2]; 0% O2, compound conc 1 μM): 19.50 Gy; D10 (radiation dose for 10% surviving fraction) (UT-SCC-54C cells [2]; 0% O2, compound conc 1 μM): 13.17 Gy; SER1 (sensitiser enhancement ratio at 1% surviving fraction) (UT-SCC-54C cells [2]; 0% O2, compound conc 1 μM): 1.10; SER10 (sensitiser enhancement ratio at 10% surviving fraction) (UT-SCC-54C cells [2]; 0% O2, compound conc 1 μM): 1.06; Plating efficiency drug/no drug (UT-SCC-54C cells [2]; 0% O2, compound conc 1 μM): 1.03; sensitisation of UT-SCC-54C cells selectively under anoxia (UT-SCC-54C cells [2]; oxic vs anoxic, clonogenic survival, FIGS. 9 and 10): provide sensitisation of UT-SCC-54C cells selectively under anoxia; radiosensitisation / differential growth inhibition of UT-SCC-54C cells (UT-SCC-54C cells [1]): did not display any differential growth inhibition
